Measured values published in ChEMBL document CHEMBL5634141 (Eur J Med Chem, 2023).
Active and inactive are the calls of the source. No cut-off for these calls is given here.

Legend:
ASPC1 = test: Antiproliferative activity against human ASPC1 cells expressing KRAS G12D mutant assessed as inhibition of cell growth incubated for 72 hrs by CCK-8 assay; format: functional, cell-based; details: ASPC1, 72 h
[1] = Cytotoxicity against HEK293T cells assessed as inhibition of cell growth incubated for 72 hrs by CCK-8 assay; format: toxicity, cell-based, HEK-293T; details: human
MIA PaCa-2 [2] = test: Antiproliferative activity against human MIA PaCa-2 cells expressing KRAS G12C mutant assessed as inhibition of cell growth incubated for 72 hrs by CCK-8 assay; format: functional, cell-based; details: MIA PaCa-2, 72 h
HepG2 = test: Antiproliferative activity against human HepG2 cells expressing KRAS assessed as inhibition of cell growth incubated for 72 hrs by CCK-8 assay; format: functional, cell-based; details: HepG2, 72 h
NCI-H358 [3] = test: Antiproliferative activity against human NCI-H358 cells expressing KRAS G12C mutant assessed as inhibition of cell growth incubated for 72 hrs by CCK-8 assay; format: functional, cell-based; details: NCI-H358, 72 h
Calu-1 [4] = test: Antiproliferative activity against human Calu-1 cells expressing KRAS G12C mutant assessed as relative cell viability at 200 nM incubated for 72 hrs by CCK-8 assay; format: functional; details: read-out: Activity
NCI-H23 [5] = test: Antiproliferative activity against human NCI-H23 cells expressing KRAS G12C mutant assessed as relative cell viability at 200 nM incubated for 72 hrs by CCK-8 assay; format: functional; details: read-out: Activity
NCI-H358 [6] = test: Antiproliferative activity against human NCI-H358 cells expressing KRAS G12C mutant assessed as relative cell viability at 200 nM incubated for 72 hrs by CCK-8 assay; format: functional; details: read-out: Activity
SW837 [7] = test: Antiproliferative activity against human SW837 cells expressing KRAS G12C mutant assessed as relative cell viability at 200 nM incubated for 72 hrs by CCK-8 assay; format: functional; details: read-out: Activity
MIA PaCa-2 [8] = test: Antiproliferative activity against human MIA PaCa-2 cells expressing KRAS G12C mutant assessed as relative cell viability at 200 nM incubated for 72 hrs by CCK-8 assay; format: functional; details: read-out: Activity
NCI-H358 [9] = test: Antiproliferative activity against human NCI-H358 cells expressing KRAS G12C mutant assessed as relative cell viability at 50 nM incubated for 72 hrs by CCK-8 assay; format: functional; details: read-out: Activity
Calu-1 [10] = test: Antiproliferative activity against human Calu-1 cells expressing KRAS G12C mutant assessed as relative cell viability at 50 nM incubated for 72 hrs by CCK-8 assay; format: functional; details: read-out: Activity
NCI-H23 [11] = test: Antiproliferative activity against human NCI-H23 cells expressing KRAS G12C mutant assessed as relative cell viability at 50 nM incubated for 72 hrs by CCK-8 assay; format: functional; details: read-out: Activity
SW837 [12] = test: Antiproliferative activity against human SW837 cells expressing KRAS G12C mutant assessed as relative cell viability at 50 nM incubated for 72 hrs by CCK-8 assay; format: functional; details: read-out: Activity
MIA PaCa-2 [13] = test: Antiproliferative activity against human MIA PaCa-2 cells expressing KRAS G12C mutant assessed as relative cell viability at 50 nM incubated for 72 hrs by CCK-8 assay; format: functional; details: read-out: Activity
[14] = test system: von Hippel-Lindau disease tumor suppressor/GTPase KRas (Homo sapiens), P01116+P40337 [G12C]; test: PROTAC activity at VHL/KRAS G12C mutant in human MIA PaCa-2 cells assessed as induction of protein degradation at 10 to 1000 nM incubated for 48 hrs by Western blotting analysis; format: cell-based; details: dose 10-1000 nM
[15] = test system: von Hippel-Lindau disease tumor suppressor/GTPase KRas (Homo sapiens), P01116+P40337 [G12C]; test: PROTAC activity at VHL/KRAS G12C mutant in human NCI-H358 cells assessed as induction of protein degradation at 10 to 1000 nM incubated for 48 hrs by Western blotting analysis; format: cell-based; details: dose 10-1000 nM

Row | SMILES | IC50 (ASPC1) | IC50 (MIA PaCa-2 [2]) | IC50 (HepG2) | IC50 (NCI-H358 [3]) | IC50 at 72 h [1] | further results
1 | C[C@@H](Oc1cc(-c2cnn(C3CCNCC3)c2)cnc1N)c1c(Cl)ccc(F)c1Cl [CRIZOTINIB] |  |  |  |  |  | viability at 0.2 µM (Calu-1 [4]): 0.87%; viability at 0.2 µM (NCI-H23 [5]): 0.81%; viability at 0.2 µM (NCI-H358 [6]): 0.82%; viability at 0.2 µM (SW837 [7]): 0.77%; viability at 0.2 µM (MIA PaCa-2 [8]): 0.79%
2 | C=CC(=O)N1CCN(c2nc(=O)n(-c3c(C)ccnc3C(C)C)c3nc(-c4c(F)cccc4OCc4cn(CCCCCC(=O)N[C@H](C(=O)N5C[C@H](O)C[C@H]5C(=O)NCc5ccc(-c6scnc6C)cc5)C(C)(C)C)nn4)c(F)cc23)[C@@H](C)C1 | > 10000 nM | 481 nM | > 10000 nM | 289 nM | > 10000 nM | 
3 | Cn1cnc2c(F)c(Nc3ccc(Br)cc3Cl)c(C(=O)NOCCO)cc21 [SELUMETINIB] |  |  |  |  |  | viability at 0.05 µM (NCI-H358 [9]): 0.86%; viability at 0.05 µM (Calu-1 [10]): 0.82%; viability at 0.05 µM (NCI-H23 [11]): 0.77%; viability at 0.05 µM (SW837 [12]): 0.73%; viability at 0.05 µM (MIA PaCa-2 [13]): 0.71%
4 | C=CC(=O)N1CCN(c2nc(=O)n(-c3c(C)ccnc3C(C)C)c3nc(-c4c(F)cccc4OCc4cn(CCC(=O)N[C@H](C(=O)N5C[C@H](O)C[C@H]5C(=O)NCc5ccc(-c6scnc6C)cc5)C(C)(C)C)nn4)c(F)cc23)[C@@H](C)C1 | > 10000 nM | 200 nM | > 10000 nM | 222 nM | > 10000 nM | 
5 | C=CC(=O)N1CCN(c2nc(=O)n(-c3c(C)ccnc3C(C)C)c3nc(-c4c(F)cccc4OCC4CCN(CCCC(=O)N[C@H](C(=O)N5CC(O)C[C@H]5C(=O)NCc5ccc(-c6scnc6C)cc5)C(C)(C)C)CC4)c(F)cc23)[C@@H](C)C1 (some centres undefined) |  | 278 nM |  | 588 nM |  | Activity [14]: inactive; Activity [15]: inactive

Now from value to compound, other results behind:

Row | IC50 (ASPC1) | IC50 (MIA PaCa-2 [2]) | IC50 (HepG2) | IC50 (NCI-H358 [3]) | SMILES | IC50 at 72 h [1] | further results
6 | > 10000 nM | 172 nM | > 10000 nM | 253 nM | C=CC(=O)N1CCN(c2nc(=O)n(-c3c(C)ccnc3C(C)C)c3nc(-c4c(F)cccc4OCCN4CCN(CCC(=O)N[C@H](C(=O)N5C[C@H](O)C[C@H]5C(=O)NCc5ccc(-c6scnc6C)cc5)C(C)(C)C)CC4)c(F)cc23)[C@@H](C)C1 | > 10000 nM | 
7 | > 10000 nM | 337 nM | > 10000 nM | 233 nM | C=CC(=O)N1CCN(c2nc(=O)n(-c3c(C)ccnc3C(C)C)c3nc(-c4c(F)cccc4OCCN4CCN(CCCC(=O)N[C@H](C(=O)N5C[C@H](O)C[C@H]5C(=O)NCc5ccc(-c6scnc6C)cc5)C(C)(C)C)CC4)c(F)cc23)[C@@H](C)C1 | > 10000 nM | 
8 | > 10000 nM | 491 nM | > 10000 nM | 368 nM | C=CC(=O)N1CCN(c2nc(=O)n(-c3c(C)ccnc3C(C)C)c3nc(-c4c(F)cccc4OCc4cn(CCCC(=O)N[C@H](C(=O)N5C[C@H](O)C[C@H]5C(=O)NCc5ccc(-c6scnc6C)cc5)C(C)(C)C)nn4)c(F)cc23)[C@@H](C)C1 | > 10000 nM | 
